Experimental data as given in US5753694A, “Anticonvulsant derivatives useful in treating amyotrophic lateral sclerosis (ALS)” (Ortho Pharmaceutical Corporation, priority 1997, dated 1998).
Read-outs that look alike come from different tables or passages of the source.

What was measured:
[1] = tested on: AMPA/kainate subtype of glutamate receptors; assay: Antagonism of kainate-evoked currents, perforated whole-cell patch-clamp on primary cultures of hippocampal neurons; type: cell-based, rat; conditions: for EC50: cultured fetal rat hippocampal neurons
Description: Johnson Pharmaceutical Research Institute, Internal Research Reports, Document ID Accession Numbers A500,960 and 398533:1). In these studies, primary cultures enriched in neurons derived from the hippocampus of fetal rats were grown in vitro for 14 to 21 days under conditions that allowed them to reach a high density and develop numerous synaptic contacts. Perforated whole-cell patch-clamp procedures were used to study electrical properties of the neuronal membranes. In this procedure electrical contact between the recording electrode and the intracellular fluid is achieved by using amphotericin B to form pores in the cell membrane. This enables the cell membrane potential or current flow across the cell membrane to be recorded accurately. Kainate, topiramate and other test compounds were microperfused onto the neurons using a multi-barrel Teflon concentration clamp pipette. Topiramate (dissolved in DMSO at 1M, then diluted in the medium in which the neurons were incubated) was applied at concentrations of […] kainate was applied at concentrations 0.1 or 1 mM.
In an initial set of experiments, the antagonistic action of topiramate on kainate-evoked currents was determined as a function of the membrane potential.
The time-course of topiramate's antagonistic activity was evaluated in a second set of experiments. Kainate was pulsed into the bathing fluid for 3 sec at 1 min intervals, and once a baseline for the kainate-evoked current was established topiramate was applied constantly for a period ranging from a few min to 20 min. […] Concentration-response curves were generated for both phases of topiramate's blocking effect. The EC50 was approximately 1 micromolar for each phase. However, the concentration required for a maximum response was approximately 0.1 mM for the first phase (phase I block) but only approximately 0.010 mM for second (phase II block).
Because of the compelling evidence that the functional state of glutamate receptors is regulated partly by protein kinases and phosphatases (L. Y. WANG, F. A. TAVERNA, X. P. HUANG, J. F. MACDONALD, and D. R. HAMPSON, Science 259, 1173-1175, 1993), the phase II blocking effect could be explained by dephosphorylation of the kainate-activated receptors. Based on evidence that cAMP-dependent protein kinase (PKA) modulates kainate activated receptors(L. Y. WANG, F. A. TAVERNA, X. P. HUANG, J. F. MACDONALD, and D. R. HAMPSON, Science 259, 1173-1175, 1993), a set of experiments was undertaken to determine if dibutyryl cyclic AMP could restore the excitatory activity of kainate subsequent to topiramate's phase II block; i.e., cause the "irreversible" effect to be reversed. […] In another set of experiments the nonspecific phosphatase inhibitor okadaic acid was applied at 1 micromolar prior to, and during, the application of topiramate to determine if inhibiting the dephosphorylation of the kainate activated receptors would prevent the phase II blocking effect of topiramate.

[2] = tested on: animal model of kindled epilepsy; conditions: cited from earlier work
[3] = tested on: human epilepsy; conditions: clinical trials of human epilepsy; cited from earlier work
[4] = tested on: rodent models of epilepsy; conditions: several rodent models of epilepsy; cited from earlier work
[5] = 1 micromolar, prior to and during topiramate

## CCCC(=O)Nc1ncnc2c1ncn2[C@@H]1O[C@@H]2COP(=O)(O)O[C@H]2[C@H]1OC(=O)CCC [dibutyryl cyclic AMP]
[1]; applied subsequent to topiramate phase II block
  restoration of kainate-evoked current after topiramate's phase II block: partially or totally restored the kainate-evoked current

## C=C1[C@@H](O)[C@@H]2O[C@]3(CC[C@H](/C=C/[C@@H](C)[C@@H]4CC(C)=C[C@@]5(O[C@H](C[C@@](C)(O)C(=O)O)CC[C@H]5O)O4)O3)CC[C@H]2O[C@@H]1[C@@H](O)C[C@H](C)[C@H]1O[C@@]2(CCCCO2)CC[C@H]1C [okadaic acid]
[1]; 1 micromolar
  effect on kainate-evoked current prior to application of topiramate: little effect
[1]; [5]
  effect on topiramate's initial antagonistic effect (phase I block): did not affect
  effect on topiramate's phase II block: phase II block was prevented

## CC1(C)O[C@@H]2[C@@H](CO[C@@]3(COS(N)(=O)=O)OC(C)(C)O[C@@H]23)O1 [topiramate, 2,3:4,5-bis-O-(1-methylethylidene)-β-D-fructopyranosesulfamate]
[2]
  block of seizures: effectively block seizures
[3]
  efficacy in simple and complex partial seizures and secondarily generalized seizures: effective as adjunctive therapy or as monotherapy
[1]; phase I block (early, reversible), read-out: EC50 of block of kainate-evoked current, first phase (phase I block)
  EC50: ~1000 nM
[1]; phase II block (constant application more than 10 min), read-out: EC50 of block of kainate-evoked current, second phase (phase II block)
  EC50: ~1000 nM
[1]; kainate pulsed 3 sec at 1 min intervals, topiramate applied constantly
  onset of partial block of kainate-evoked current: evident within one min
[1]; phase I block
  concentration required for a maximum response, phase I block: approximately 0.1 mM
[1]; phase II block
  concentration required for a maximum response, phase II block: approximately 0.010 mM
[1]; topiramate applied constantly for more than 10 min
  magnitude of antagonistic effect on kainate-induced membrane currents after prolonged application: increased markedly
[1]; topiramate applied more than 10 min, then withdrawn
  kainate-evoked current after withdrawal following prolonged application: remained depressed
[1]; topiramate withdrawn (washed out) within 5 min
  reversibility of early block on washout: readily reversed
[1]; voltage-clamped potentials -60 mV to +60 mV at 20 mV increments
  dependence of antagonistic effect on membrane potential: most effective at membrane potentials near the resting state
[4]
  block of seizures: effectively block seizures
